Data as given in article PMC9388906, “Dual inhibition of the Echinococcus multilocularis energy metabolism” (Frontiers in Veterinary Science, 2022).
Where two headings read alike, the source gives them in different places.

Columns and labels:
[1] = system: E. multilocularis metacestodes (isolate Sval); assay: PGI assay (damage marker release), metacestodes, isolate Sval; assay type: cell-based, Echinococcus multilocularis; conditions: for cytotoxicity at 10 µM: Echinococcus multilocularis, 120 h, read-out: Metacestodes, PGI assay, relative to positive control Tx-100; for Activity in PGI assay (activity call): threshold >20% of Tx-100
Protocol: (§1) To assess the in vitro efficacy of ELQs against E. multilocularis, (a) the damage-marker phosphoglucose isomerase (PGI) assay was applied against metacestodes, and (b) the germinal layer (GL) cell viability assay was applied to measure effects on isolated GL cells. Both assays are described in more detail below. The drug testing strategy was as follows: PGI assay was first conducted for overview screening at 10 μM with the parasite isolates H95 and Sval. The GL cell viability assay was performed at 0.1 μM with both isolates H95 and Sval.
(§2) The PGI assay measures the amount of PGI that metacestodes release into the medium when damaged ([17], [32]). The purification and in vitro drug incubation of E. multilocularis metacestodes was conducted according to Stadelmann et al. ([32]). In short, cultures were applied for in vitro drug testing at the age of 6-8 weeks. E. multilocularis metacestodes were therefore purified by the addition of 2% saccharose and washed extensively with PBS. Purified metacestodes were suspended 1:3 with DMEM (without phenol red, supplemented with 100 U/mL penicillin, 100 μg/mL streptomycin) and distributed in 48-well plates (1 mL/well, thus 300 μL pure metacestode vesicles per well). […] The corresponding DMSO concentration was used as negative control and Tx-100 (0.1% final concentration) was used for total damage (positive control). […] After 5 days, relative PGI activities were measured and calculated as percentage of the Tx-100 control as described previously in Rufener et al. ([17]). They were calculated as mean values and standard deviations for each triplicate. […] EC50 measurements were performed twice, and averages and standard deviations of these repeated tests are given.

[2] = system: E. multilocularis GL cells (isolate H95); assay: GL cell viability assay (CellTiter-Glo), isolate H95; assay type: cell-based, Echinococcus multilocularis; conditions: for viability at 0.1 µM: Echinococcus multilocularis, 120 h, read-out: GL cells, viability via ATP measurements, relative to DMSO control
Protocol: as §1
(§3) The isolation of E. multilocularis GL cells was done as described previously ([17]) with minor modifications. Fifteen units of GL cells were distributed to each well of a 384 well plate in a total volume of 12.5 μL conditioned medium. The different ELQs were added to the wells to 0.1 μM, in quadruplicates. As a negative control 0.1% DMSO was used. The 384-well plate was incubated for 5 days at 37°C under humid nitrogen atmosphere. Thereafter, viability of the GL cells under different drug treatments was assessed by CellTiter-Glo® (Promega AG, Dübendorf, Switzerland). The CellTiter-Glo reagent was complemented with 1% Tx-100. The luciferase bioluminescence was measured at 530 nm by using the Enspire multilabel reader (PerkinElmer Life Sciences, Schwerzenbach, Switzerland). Using Microsoft Excel, the blank values were subtracted from the experimental values and the relative viability compared to DMSO was calculated. Viabilities were calculated as mean values and standard deviations for each quadruplicate.

[3] = system: E. multilocularis metacestodes (isolate H95); assay: PGI assay (damage marker release), metacestodes, isolate H95; assay type: cell-based, Echinococcus multilocularis; conditions: for cytotoxicity at 10 µM: read-out: Metacestodes, PGI assay, relative to positive control Tx-100; for EC50: read-out: EC50 metacestodes
Protocol: as §1, §2

[4] = system: E. multilocularis GL cells (isolate Sval); assay: GL cell viability assay (CellTiter-Glo), isolate Sval; assay type: cell-based, Echinococcus multilocularis; conditions: for viability at 0.1 µM: Echinococcus multilocularis, 120 h, read-out: GL cells, viability via ATP measurements, relative to DMSO control
Protocol: as §1, §3

[5] = system: Reuber rat hepatoma (Rh) cells; assay: Mammalian cell toxicity, Alamar Blue assay; assay type: cell-based
Protocol: Compounds were added in a serial dilution (30–0.23 μM, 1:2 dilution steps) and in triplicates. Plates were incubated at 37°C, 5% CO2 and humid atmosphere for 5 days. Resazurin was added to a final concentration of 10 mg/L to each well, and fluorescence measured at 530 nm on an Enspire multilabel plate reader over 3 h. By using Microsoft Office Excel 2010 and a logit-log transformation of the relative growth, IC50 values were calculated. The test was performed twice for each compound, and respective averages and standard deviations are given.

[6] = system: E. multilocularis metacestodes; design: method as in PMID 30396011; conditions: TEM of metacestodes; cited from earlier work
[7] = system: E. multilocularis metacestodes; assay: PGI assay, single and combination treatment under normoxic and anaerobic conditions; assay type: cell-based, Echinococcus multilocularis; conditions: 10 μM each; 5 days; anaerobic (0% O2)
Protocol: The PGI assay measures the amount of PGI that metacestodes release into the medium when damaged ([17], [32]). The purification and in vitro drug incubation of E. multilocularis metacestodes was conducted according to Stadelmann et al. ([32]). In short, cultures were applied for in vitro drug testing at the age of 6-8 weeks. E. multilocularis metacestodes were therefore purified by the addition of 2% saccharose and washed extensively with PBS. Purified metacestodes were suspended 1:3 with DMEM (without phenol red, supplemented with 100 U/mL penicillin, 100 μg/mL streptomycin) and distributed in 48-well plates (1 mL/well, thus 300 μL pure metacestode vesicles per well). […] The corresponding DMSO concentration was used as negative control and Tx-100 (0.1% final concentration) was used for total damage (positive control). […] After 5 days, relative PGI activities were measured and calculated as percentage of the Tx-100 control as described previously in Rufener et al. ([17]). They were calculated as mean values and standard deviations for each triplicate. EC50 calculations were calculated based on logit-log transformed values in Microsoft Office Excel 2010. EC50 measurements were performed twice, and averages and standard deviations of these repeated tests are given.
For double inhibition of the mitochondrial energy pathways of E. multilocularis, quinazoline as an inhibitor of the anaerobic MD ([29]) was applied in combination with ELQ-400 as an inhibitor of the ETC. Both compounds were tested either alone or in combination at 10 μM with the above-described PGI assay for 5 days for their activity against E. multilocularis metacestodes. PGI assays were done in triplicates and two times independently. […] Results of the assays were calculated as mean values and standard deviations for each biological triplicate were calculated as relative percentage to the Tx-100 control. To assess direct effects on the MD, succinate levels were measured in the supernatants of the PGI assay, as described below. […]

[8] = system: E. multilocularis metacestodes; assay: Succinate concentrations in culture supernatants (malate dismutation activity); assay type: cell-based, Echinococcus multilocularis; conditions: 10 μM; 5 days; anaerobic
Protocol: Both compounds were tested either alone or in combination at 10 μM with the above-described PGI assay for 5 days for their activity against E. multilocularis metacestodes. PGI assays were done in triplicates and two times independently. […] To assess direct effects on the MD, succinate levels were measured in the supernatants of the PGI assay, as described below. To determine whether differences between groups were significant, data was subjected to student's t-test analysis and P-values below 0.05 are given.
Succinate measurements in supernatants of drug-treated E. multilocularis metacestodes was performed with the “Succinic Acid Assay Kit” (Megazyme, Bray, Ireland). […] 20 μL of each diluted (1:20) sample or standard was used in triplicate for succinate measurements in 96-well plates (flat bottom, Greiner Bio-One GmbH, Frickenhausen, Germany). The reaction mix buffer was prepared as described in the supplier manual: per well 180 μL H2O, 20 μL solvent 1 (buffer, pH 8.4, sodium azide 0.02% w/v), 20 μL solvent 2 (NADH plus stabilizer), 20 μL solvent 3 (ATP, PEP, and CoA) and 2 μL solvent 4 (pyruvate kinase plus L-lactate dehydrogenase suspension) were added. After a 180 s pre-incubation time, a first measurement at 340 nm was done on an EnSpire multilabel plate reader (PerkinElmer Life Sciences, Schwerzenbach, Switzerland). 10 μL solvent 5 (succinyl-CoA synthetase suspension; 1:10 diluted) were then added to each well and the plate was read at 340 nm for 1 h every minute. […] Succinate levels are shown as mean values with standard deviations of biological triplicates. To determine whether differences between groups were significant, data was subjected to student's t-test analysis and P-values below 0.05 are given.

[9] = isolate Sval, 10 μM, 5 days, normoxic, mean (SD) of triplicates, active if >20%
[10] = isolate H95, 0.1 μM, 5 days, nitrogen atmosphere, mean (SD), active if <30%
[11] = Echinococcus multilocularis, 120 h, isolate H95, 10 μM, 5 days, normoxic, mean (SD) of triplicates, active if >20%
[12] = isolate Sval, 0.1 μM, 5 days, nitrogen atmosphere, mean (SD), active if <30%
[13] = Echinococcus multilocularis, 120 h
[14] = Rattus norvegicus, 120 h, confluent Rh cells, Alamar blue, 5 days, range tested 30–0.23 μM, mean (SD) of two tests, read-out: IC50 Rh confluent
[15] = Rattus norvegicus, 120 h, preconfluent Rh cells, Alamar blue, 5 days, range tested 30–0.23 μM, mean (SD) of two tests, read-out: IC50 Rh preconfluent
[16] = Echinococcus multilocularis, 120 h, isolate H95, PGI assay, 5 days, range tested 30–0.12 μM, mean (SD) of two tests
[17] = isolate H95, 10 μM, 5 days, normoxic, mean (SD) of triplicates, active if >20%

With `CCCCCCCc1c(C)[nH]c2cc(OC)ccc2c1=O` [ELQ-100] the cytotoxicity at 10 µM [1, 9] was 0%, the viability at 0.1 µM [2, 10] was 100% and the cytotoxicity at 10 µM [3, 11] was 1.4%. For the same molecule, the viability at 0.1 µM [4, 12] was 57.9%.

For `CCCCCCCc1c(C)[nH]c2cc(F)cc(F)c2c1=O` [ELQ-121], the cytotoxicity at 10 µM [1] was 20.9%, the “Activity in PGI assay (activity call)” value ([1]; isolate Sval, 10 μM) was “activity” and the viability at 0.1 µM [2] was 1%. The IC50 ([5]; Rattus norvegicus, 120 h, read-out: IC50 Rh confluent) was over 30 µM, the IC50 ([5]; Rattus norvegicus, 120 h, read-out: IC50 Rh preconfluent) was over 30 µM and the EC50 [3, 13] was 1.19 µM. The cytotoxicity at 10 µM [3, 13] was 15.2% and the viability at 0.1 µM [4] was 7.3%.

For `CCCCCCCc1c(C)[nH]c2ccccc2c1=O` [ELQ-127], the cytotoxicity at 10 µM [1, 9] was 2.5%, the viability at 0.1 µM [2, 10] was 17.2% and the cytotoxicity at 10 µM [3, 11] was 11.7%. It also gave a viability at 0.1 µM [4, 12] of 40.4%.

Molecule `CCCCCCCc1c(C)[nH]c2cccc(F)c2c1=O` [ELQ-136] has a cytotoxicity at 10 µM [1, 9] of 7%, a viability at 0.1 µM [2, 10] of 8.4% and an IC50 [5, 14] of over 30 µM. The IC50 [5, 15] was over 30 µM, the cytotoxicity at 10 µM [3, 11] was 21.4% and the EC50 [3, 16] was 0.22 µM. It also gave a viability at 0.1 µM [4, 12] of 15.1%.

For `Cc1[nH]c2ccccc2c(=O)c1-c1ccc(Oc2ccc(OC(F)(F)F)cc2)cc1` [ELQ-271], the “Metacestodes, PGI assay, relative to positive control Tx-100” value [1, 9] was 56.9 (4.3) %, the “Activity in PGI assay (activity call)” value ([1]; isolate Sval, 10 μM) was “activity” and the “GL cells, viability via ATP measurements, relative to DMSO control” value (“GL cells … relative to DMSO control” for short) [2, 10] was 2.7 (1.6) %. The IC50 ([5]; confluent Rh cells, Alamar blue, 5 days, range tested 30–0.23 μM, mean (SD) of two tests, read-out: IC50 Rh confluent) was over 30 µM, the IC50 ([5]; preconfluent Rh cells, Alamar blue, 5 days, range tested 30–0.23 μM, mean (SD) of two tests, read-out: IC50 Rh preconfluent) was 8.64 µM and the “Metacestodes, PGI assay, relative to positive control Tx-100” value [3, 17] was 33 (1.7) %. The EC50 ([3]; isolate H95, PGI assay, 5 days, range tested 30–0.12 μM, mean (SD) of two tests) was 0.24 µM and the “GL cells … relative to DMSO control” value [4, 12] was 25.4 (7.2) %.

In the case of `COc1cc2[nH]c(C)c(-c3ccc(Oc4ccc(OC(F)(F)F)cc4)cc3)c(=O)c2cc1Cl` [ELQ-300], the “Metacestodes, PGI assay, relative to positive control Tx-100” value [1, 9] is reported as 7.6 (1.1) %, the “GL cells … relative to DMSO control” value [2, 10] is reported as 84.0 (7.0) % and the “Metacestodes, PGI assay, relative to positive control Tx-100” value [3, 17] is reported as 6.6 (2.2) %. For the same molecule, the “GL cells … relative to DMSO control” value [4, 12] was 46.9 (9.6) %.

With `COc1cc2[nH]c(C)c(-c3ccc(Oc4ccc(OC(F)(F)F)cc4)cc3)c(=O)c2cc1F` [ELQ-316] the “Metacestodes, PGI assay, relative to positive control Tx-100” value [1, 9] was 4.6 (1.3) %, the “GL cells … relative to DMSO control” value [2, 10] was 81.1 (9.5) % and the “Metacestodes, PGI assay, relative to positive control Tx-100” value [3, 17] was 21.4 (0.1) %. The “GL cells … relative to DMSO control” value [4, 12] was 58 (5.3) %.

`CCCCCCCc1c(C)[nH]c2cc(OC)c(F)cc2c1=O` [ELQ-433] gave a cytotoxicity at 10 µM [1, 9] of 1.8%, a viability at 0.1 µM [2, 10] of 96.4% and a cytotoxicity at 10 µM [3, 11] of 4.3%. The viability at 0.1 µM [4, 12] was 62.1%.

With `CCCCCCCCCCCc1c(C)[nH]c2cc(OC)c(Cl)cc2c1=O` [ELQ-434] the cytotoxicity at 10 µM [1, 9] was 0.6%, the viability at 0.1 µM [2, 10] was 33.3% and the cytotoxicity at 10 µM [3, 11] was 0.4%. For the same molecule, the viability at 0.1 µM [4, 12] was 81.3%.

With `CCCCCCCCCCCc1c(C)[nH]c2cc(OC)c(F)cc2c1=O` [ELQ-435] the cytotoxicity at 10 µM [1, 9] was 0%, the viability at 0.1 µM [2, 10] was 15.6% and the cytotoxicity at 10 µM [3, 11] was 2.6%. It also gave a viability at 0.1 µM [4, 12] of 80.1%.

`CCCCCCCCCCCc1c(C)[nH]c2ccccc2c1=O` [ELQ-436] showed a cytotoxicity at 10 µM [1, 9] of 3.1%, a viability at 0.1 µM [2, 10] of 14% and a cytotoxicity at 10 µM [3, 11] of 3.4%. It also gave a viability at 0.1 µM [4, 12] of 16.4%.

For `CCCCCCCCCCCc1c(C)[nH]c2cc(F)cc(F)c2c1=O` [ELQ-437], the cytotoxicity at 10 µM [1, 9] was 33.1%, the “Activity in PGI assay (activity call)” value ([1]; isolate Sval, 10 μM) was “activity” and the viability at 0.1 µM [2, 10] was 19.7%. The IC50 [5, 14] was over 30 µM, the IC50 [5, 15] was over 30 µM and the cytotoxicity at 10 µM [3, 11] was 37.6%. It also gave an EC50 [3, 16] of 1.71 µM and a viability at 0.1 µM [4, 12] of 19.1%.

In the case of `CC(C)(C)[C@H]1CC[C@H](CC2=C(O)C(=O)c3ccccc3C2=O)CC1` [buparvaquone], the “Concentration already affecting the parasite ultrastructure (electron dense mitochondrial matrix)” value [6] is given as 0.3 µM.

For `c1ccc2ncncc2c1` [quinazoline, reference compound], the “PGI release of metacestodes relative to Tx-100” value [7] was “no PGI release” and the “Release of succinate by metacestodes compared to DMSO control” value [8] was “significant reduction”.
